Test results taken from patent publication US10214544B2, “Imidazopyridazine and imidazothiadiazole compounds” (Universite de Montreal, priority 2015, dated 2019).
No end group written: not given here.

How the values were obtained:
[1] = molecular target: PAR4 (Homo sapiens (Human), UniProt Q96RI0); assay: FLIPR assay in PAR4-expressing HEK293 cells (PAR4 antagonist activity); type: cell-based; conditions: inhibition of H-Ala-Phe(4-F)-Pro-Gly-Trp-Leu-Val-Lys-Asn-Gly-NH2-induced intracellular calcium mobilization
Chain of PAR4 (Q96RI0 18-385): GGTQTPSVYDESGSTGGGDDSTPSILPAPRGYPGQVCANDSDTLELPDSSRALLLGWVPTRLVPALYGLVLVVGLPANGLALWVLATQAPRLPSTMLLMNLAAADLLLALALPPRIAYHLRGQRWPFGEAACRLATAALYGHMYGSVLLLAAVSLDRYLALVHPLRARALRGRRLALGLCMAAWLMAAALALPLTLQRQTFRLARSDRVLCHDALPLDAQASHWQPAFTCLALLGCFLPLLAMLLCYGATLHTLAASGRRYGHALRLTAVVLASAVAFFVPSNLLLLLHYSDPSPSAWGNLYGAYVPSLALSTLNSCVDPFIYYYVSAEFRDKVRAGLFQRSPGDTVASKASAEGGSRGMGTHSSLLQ
Excerpt: The FLIPR assay is an exemplary in vitro assay for measuring the activity of the PAR4 antagonists of the present invention. In this assay, intracellular calcium mobilization is induced in PAR4 expressing cells by a PAR4 agonist and calcium mobilization is monitored. See, e.g., Example A.
(§1) HEK293 cells stably expressing PAR4 were generated by a standard method of transfection of human PAR4 (F2R23) cDNA expression vector and selected based on PAR4 protein expression or mRNA expression. […] These cells also express endogenous PAR1 and can elicit calcium signal upon stimulation with PAR1 agonist peptide. Therefore, the same cells were also used to determine selectivity against PAR1 and agonist activity for both receptors. Cells from HEK293 PAR4 Clone 1.2A (BMS Arctic ID 383940) were propagated and used for calcium mobilization studies.
FLIPR-based calcium mobilization assay in HEK293 cells was used to measure PAR4 antagonism, agonism, and selectivity against PAR1. The activity of the PAR4 antagonists of the present invention were tested in PAR4 expressing cells by monitoring H-Ala-Phe(4-F)-[…]NH2-induced intracellular calcium mobilization. Counter screens for agonist activity and PAR1 antagonist activity were also performed. Briefly, PAR1/PAR4-expressing HEK293 cells were grown in DMEM (Life Technology, Grand Island, N.Y.) containing 10% heat-inactivated FBS, 1% Penicillin-Streptomycin, 10 μg/mL blasticidin, and 100 μg/mL Zeocin at 37° C. with 5% CO2. Cells were plated overnight prior to the experiment in a black 384-well Purecoat Amine clear bottom plate (Becton Dickinson Biosciences, San Jose, Calif.) at 10,000 cells/well in 30 μL growth medium and incubated in a humidified chamber at 37° C. with 5% CO2 overnight. Prior to compound addition, the cell medium was replaced with […] of 1× calcium and magnesium-containing Hank's Balanced Saline Solution (HBSS) (with 20 mM HEPES) and 1:1000 diluted fluorescent calcium indicator (Codex Biosolutions, Gaithersburg, Md.). After a 30 minute incubation period at 37° C. and a further 30 minute incubation and equilibration period at room temperature, 20 μL test compound (diluted in 1× HBSS buffer) was added at various concentrations at 0.17% dimethyl sulfoxide (DMSO) final concentration. Changes in fluorescence intensity were measured using a Functional Drug Screening System (FDSS, Hamamatsu, Japan) to determine agonist activities. The cells were then incubated for 30 minutes at room temperature followed by addition of 20 μL of agonist peptide for antagonist activity measurement. […] Compound potency was derived from 11-point concentration-response curves.
The following Table sets out results obtained employing various compounds of the invention tested in the FLIPR assay. As indicated above, the FLIPR assay, an in vitro assay, measures the PAR4 antagonist activity of compounds tested as described in Example A.

[2] = molecular target: PAR1 (Homo sapiens (Human), UniProt P25116); assay: FLIPR assay, PAR1 agonist peptide response in PAR1/PAR4-expressing HEK293 cells; type: cell-based; conditions: routine test of agonist response, FLIPR assay of Example A
Chain of PAR1 (P25116 22-425): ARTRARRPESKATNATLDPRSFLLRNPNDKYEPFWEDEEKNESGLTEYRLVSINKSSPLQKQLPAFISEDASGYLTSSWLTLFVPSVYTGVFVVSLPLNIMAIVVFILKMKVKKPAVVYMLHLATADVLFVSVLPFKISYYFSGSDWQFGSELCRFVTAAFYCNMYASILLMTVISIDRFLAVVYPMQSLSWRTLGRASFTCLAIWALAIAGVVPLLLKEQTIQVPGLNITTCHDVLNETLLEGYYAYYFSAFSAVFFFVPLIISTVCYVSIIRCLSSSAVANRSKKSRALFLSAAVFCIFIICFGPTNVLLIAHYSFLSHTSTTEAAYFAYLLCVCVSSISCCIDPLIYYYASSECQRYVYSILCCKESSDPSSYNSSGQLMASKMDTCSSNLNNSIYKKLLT
Excerpt: as §1
FLIPR-based calcium mobilization assay in HEK293 cells was used to measure PAR4 antagonism, agonism, and selectivity against PAR1. The activity of the PAR4 antagonists of the present invention were tested in PAR4 expressing cells by monitoring H-Ala-Phe(4-F)-[…]NH2-induced intracellular calcium mobilization. Counter screens for agonist activity and PAR1 antagonist activity were also performed. Briefly, PAR1/PAR4-expressing HEK293 cells were grown in DMEM (Life Technology, Grand Island, N.Y.) containing 10% heat-inactivated FBS, 1% Penicillin-Streptomycin, 10 μg/mL blasticidin, and 100 μg/mL Zeocin at 37° C. with 5% CO2. […] Changes in fluorescence intensity were measured using a Functional Drug Screening System (FDSS, Hamamatsu, Japan) to determine agonist activities. […]

EC50 [2] [nM] | Compound | EC50 [1] [nM]
 | COc1cc(OCc2cccc(NC(=O)c3cccc(Cl)c3)c2)c2cc(-c3cn4nc(OC)sc4n3)oc2c1 [Example 11] | 1.7
 | COC(=O)c1ccc(C(=O)Nc2cccc(COc3cc(OC)cc4oc(-c5cn6nc(OC)sc6n5)cc34)c2)cc1 [Example 34] | 1.2
 | CNc1cccc(COc2cc(OC)cc3oc(-c4cn5nc(OC)sc5n4)cc23)c1 [Example 82, 3-(((6-Methoxy-2-(2-methoxyimidazo[2,1-b][1,3,4]thiadiazol-6-yl)benzofuran-4-yl)oxy)methyl)-N-methylaniline] | 5.2
 | COc1cc(OCc2cccc3c2CCN3C(=O)c2ccc(OC)nc2)c2cc(-c3cn4nc(OC)sc4n3)oc2c1 [Example 127] | 2.9
 | COc1cc(OCc2cccc(NC(=O)CC3CCCCC3)c2)c2cc(-c3cn4nc(OC)sc4n3)oc2c1 [Example 146] | 7.5
 | COc1cc(OCc2cccc(NC(=O)c3cccc(Cl)c3Cl)c2)c2cc(-c3cn4nc(OC)sc4n3)oc2c1 [Example 156] | 1.7
 | COc1cc(OCc2cccc(NC(=O)c3c(C)noc3C)c2)c2cc(-c3cn4nc(OC)sc4n3)oc2c1 [Example 45] | 2.8
 | COc1cc(OCc2cccc(N(C)C(=O)c3cccc(F)c3)c2)c2cc(-c3cn4nc(OC)sc4n3)oc2c1 [Example 85] | 6.1
 | COc1cc(OCc2cccc(NC(=O)c3ccccc3)c2)c2cc(-c3cn4nc(OC)sc4n3)oc2c1 [Example 1, N-(3-(((6-methoxy-2-(2-methoxyimidazo[2,1-b][1,3,4]thiadiazol-6-yl)benzofuran-4-yl)oxy)methyl)phenyl)benzamide] | 1.1
~2000 | SFFLRR [SFFLRR] | 
 | COc1cc(OCc2cccc(NC(=O)c3cccc(N(C)C)c3)c2)c2cc(-c3cn4nc(OC)sc4n3)oc2c1 [Example 144] | 3.8
 | COc1cc(OCc2ccc3c(c2)N(C(=O)c2ccccc2C)CC3)c2cc(-c3cn4nc(OC)sc4n3)oc2c1 [Example 101] | 3.1
 | COc1cc(OCc2cccc(NC(=O)c3ccc(Oc4ccccc4)nc3)c2)c2cc(-c3cn4nc(OC)sc4n3)oc2c1 [Example 51] | 2.3
 | COc1cc(OCc2cccc(NC(=O)c3ccc(C#N)cc3)c2)c2cc(-c3cn4nc(OC)sc4n3)oc2c1 [Example 36] | 2.5
 | COc1cc(OCc2cccc(NC(=O)c3cn4nc(C(C)(F)F)sc4n3)c2)c2cc(-c3cn4nc(OC)sc4n3)oc2c1 [Example 68] | 8.9
 | COc1cc(OCc2cccc(NC(=O)c3cc(F)cc(OC(F)(F)F)c3)c2)c2cc(-c3cn4nc(OC)sc4n3)oc2c1 [Example 76] | 2.5
 | COc1cc(OCc2cccc(NC(=O)c3ccccn3)c2)c2cc(-c3cn4nc(OC)sc4n3)oc2c1 [Example 139] | 2.7
 | COc1cc(OCc2cccc(NC(=O)c3ccc(OC(F)(F)F)cc3)c2)c2cc(-c3cn4nc(OC)sc4n3)oc2c1 [Example 41] | 1.4
 | COc1cc(OCc2cccc(NC(=O)c3ccc(C(C)(C)C)cc3)c2)c2cc(-c3cn4nc(OC)sc4n3)oc2c1 [Example 37] | 2.5
 | COc1cc(OCc2cccc(NC(=O)c3ccc(OC)c(C(F)(F)F)c3)c2)c2cc(-c3cn4nc(OC)sc4n3)oc2c1 [Example 157] | 2.8
 | COc1cc(OCc2cccc3c2CCN3C(=O)c2cncnc2)c2cc(-c3cn4nc(OC)sc4n3)oc2c1 [Example 126] | 260
 | COc1cc(OCc2cccc(NC(=O)c3ccc(F)c(F)c3F)c2)c2cc(-c3cn4nc(OC)sc4n3)oc2c1 [Example 14] | 1.4
 | COc1cc(OCc2cccc3c2CCN3C(=O)c2cccc(F)c2)c2cc(-c3cn4nc(OC)sc4n3)oc2c1 [Example 121] | 140
 | COc1cc(OCc2cccc(NC(=O)c3ccnnc3)c2)c2cc(-c3cn4nc(OC)sc4n3)oc2c1 [Example 69] | 12
 | COc1cc(OCc2cccc(NC(=O)c3c(F)cc(F)cc3F)c2)c2cc(-c3cn4nc(OC)sc4n3)oc2c1 [Example 21] | 1.5
 | COc1cc(OC(F)F)cc(C(=O)Nc2cccc(COc3cc(OC)cc4oc(-c5cn6nc(OC)sc6n5)cc34)c2)c1 [Example 78] | 2.3

EC50 [2] [nM] | Compound | EC50 [1] [nM]
 | COc1cc(OCc2cccc3c2CCN3C(=O)c2ccccc2)c2cc(-c3cn4nc(OC)sc4n3)oc2c1 [Example 115, (4-(((6-Methoxy-2-(2-methoxyimidazo[2,1-b][1,3,4]thiadiazol-6-yl)benzofuran-4-yl)oxy)methyl)indolin-1-yl)(phenyl)methanone] | 96
 | COc1cc(OCc2cccc(N(C)C(=O)c3ccc(C)cc3)c2)c2cc(-c3cn4nc(OC)sc4n3)oc2c1 [Example 89] | 3.5
 | COc1cc(OCc2cccc(NC(=O)c3cc(OC(F)F)cc(C(F)(F)F)c3)c2)c2cc(-c3cn4nc(OC)sc4n3)oc2c1 [Example 74] | 0.95
 | COc1cc(OCc2cccc(NC(=O)c3csc(-c4cccc(C(F)(F)F)c4)n3)c2)c2cc(-c3cn4nc(OC)sc4n3)oc2c1 [Example 80] | 94
 | COc1nn2cc(-c3cc4c(OCc5cccc(NC(=O)c6ccccc6)c5)cccc4o3)nc2s1 [Example 52] | 0.41
 | COc1cc(OCc2cccc(NC(=O)c3csc(-c4ccccc4)n3)c2)c2cc(-c3cn4nc(OC)sc4n3)oc2c1 [Example 72] | 2.2
 | COc1cc(OCc2cccc(NC(=O)c3ccc(C)nc3Cl)c2)c2cc(-c3cn4nc(OC)sc4n3)oc2c1 [Example 64] | 1.4
 | COc1ccc(C(=O)Nc2cccc(COc3cc(OC)cc4oc(-c5cn6nc(OC)sc6n5)cc34)c2)cc1 [Example 18] | 0.91
 | COc1cc(OCc2cccc(NC(=O)c3ccnc(O)c3)c2)c2cc(-c3cn4nc(OC)sc4n3)oc2c1 [Example 56] | 5.5
 | COc1cc(OCc2cccc(NC(=O)c3cnoc3-c3ccccc3)c2)c2cc(-c3cn4nc(OC)sc4n3)oc2c1 [Example 60] | 2.9
 | COc1cc(OCc2cccc(NC(=O)c3cc(C)cc(C(F)(F)F)c3)c2)c2cc(-c3cn4nc(OC)sc4n3)oc2c1 [Example 71] | 1.9
 | COc1cc(OCc2ccc3c(c2)N(C(=O)c2ccccc2F)CC3)c2cc(-c3cn4nc(OC)sc4n3)oc2c1 [Example 104] | 2.2
 | COc1cc(OCc2cccc(NC(=O)c3csc(C(F)(F)F)n3)c2)c2cc(-c3cn4nc(OC)sc4n3)oc2c1 [Example 70] | 1
 | COc1cc(OCc2cccc(NC(=O)c3ccc(C(F)(F)F)c(F)c3)c2)c2cc(-c3cn4nc(OC)sc4n3)oc2c1 [Example 161] | 1.5
 | COc1cc(OCc2cccc(NC(=O)c3ccccc3C)c2)c2cc(-c3cn4nc(OC)sc4n3)oc2c1 [Example 27] | 0.87
 | COc1cc(OCc2cccc(NC(=O)c3cc(Cl)nc(Cl)c3)c2)c2cc(-c3cn4nc(OC)sc4n3)oc2c1 [Example 55] | 1.1
 | COc1cc(OCc2cccc(N(C)S(=O)(=O)c3ccccc3)c2)c2cc(-c3cn4nc(OC)sc4n3)oc2c1 [Example 91] | 2
 | COc1cc(OCc2cccc(NC(=O)c3ccc4ccccc4c3)c2)c2cc(-c3cn4nc(OC)sc4n3)oc2c1 [Example 23] | 1.8
 | COc1cc(OCc2cccc3c2CCN3C(=O)c2ccc(F)cc2)c2cc(-c3cn4nc(OC)sc4n3)oc2c1 [Example 116] | 140
 | CCCc1ccc(C(=O)Nc2cccc(COc3cc(OC)cc4oc(-c5cn6nc(OC)sc6n5)cc34)c2)cc1 [Example 31] | 1.3
 | COc1cc(OCc2ccc3c(c2)N(C(=O)c2ccc(C)cc2)CC3)c2cc(-c3cn4nc(OC)sc4n3)oc2c1 [Example 105] | 3.4
 | COc1cc(OCc2cccc3c2CCN3C(C)=O)c2cc(-c3cn4nc(OC)sc4n3)oc2c1 [Example 117] | > 3300
 | COc1cc(OCc2cccc(NC(=O)c3ccc(OC)nc3)c2)c2cc(-c3cn4nc(OC)sc4n3)oc2c1 [Example 46] | 1.1
 | COc1cc(OCc2cccc(NC(=O)C(C)(C)Oc3ccccc3)c2)c2cc(-c3cn4nc(OC)sc4n3)oc2c1 [Example 40] | 1.4
 | COc1cc(OC)cc(C(=O)Nc2cccc(COc3cc(OC)cc4oc(-c5cn6nc(OC)sc6n5)cc34)c2)c1 [Example 137] | 3.4
 | COc1cc(OCc2cccc(NC(=O)COc3ccccc3)c2)c2cc(-c3cn4nc(OC)sc4n3)oc2c1 [Example 35] | 1
